Data reported in the NIST ThermoML archive (doi:10.1016/j.jct.2019.02.019).

Assay: xn = mol fraction of the nth substance listed
Conditions: 101 kPa, Liquid; for viscosity: Capillary tube (Ostwald / Ubbelohde) method; for mass density: Vibrating tube method

CN(CCO)CCO [N-methyldiethanolamine] + CCO
Conditions	mass density, 293.15 K [kg/m3]	mass density, 303.15 K [kg/m3]	mass density, 313.15 K [kg/m3]	mass density, 323.15 K [kg/m3]	viscosity, 293.15 K [mPa·s]	viscosity, 303.15 K [mPa·s]	viscosity, 313.15 K [mPa·s]	viscosity, 323.15 K [mPa·s]
x1 = 0.1003	838.89	830.03	820.48	812.93	1.95	1.54	1.27	1.03
x1 = 0.2001	879.56	869.79	860.28	852.57	3.25	2.45	1.94	1.52
x1 = 0.3001	913.83	903.04	893.56	885.65	5.36	3.88	2.95	2.25
x1 = 0.3998	941.42	930.67	921.43	913.45	8.77	6.08	4.5	3.32
x1 = 0.5	964.94	954.51	945.44	937.39	14.09	9.41	6.64	4.79
x1 = 0.5999	984.81	974.63	965.86	957.92	21.94	14.14	9.68	6.79
x1 = 0.7	1001.91	992.31	983.56	975.64	33.37	20.8	13.69	9.4
x1 = 0.8001	1016.76	1007.51	999.13	991.3	49.36	29.56	18.85	12.44
x1 = 0.9005	1029.58	1020.96	1012.93	1005.16	72.94	41.84	25.38	16.52
x1 = 1	1040.5	1032.6	1024.76	1017.12	103.04	57.28	33.94	21.31

NCCO [2-aminoethan-1-ol] + CCO
Conditions	mass density, 293.15 K [kg/m3]	mass density, 303.15 K [kg/m3]	mass density, 313.15 K [kg/m3]	mass density, 323.15 K [kg/m3]	viscosity, 293.15 K [mPa·s]	viscosity, 303.15 K [mPa·s]	viscosity, 313.15 K [mPa·s]	viscosity, 323.15 K [mPa·s]
x1 = 0.1002	816.84	808.87	799.33	791.69	1.56	1.27	1.05	0.87
x1 = 0.1999	843.68	834.94	825.34	817.35	2.12	1.68	1.36	1.11
x1 = 0.3002	868.92	860.42	850.66	842.49	2.89	2.23	1.77	1.42
x1 = 0.4004	893.15	884.54	874.69	866.58	3.96	2.98	2.29	1.8
x1 = 0.5	916.18	907.59	897.82	889.61	5.44	3.96	2.95	2.28
x1 = 0.5998	938.02	929.38	919.84	911.88	7.45	5.23	3.8	2.87
x1 = 0.7	959.13	950.81	941.56	933.03	10.19	6.92	4.87	3.6
x1 = 0.7996	978.96	970.81	961.95	953.82	13.74	9.05	6.17	4.48
x1 = 0.8994	998.41	989.98	981.44	973.33	18.22	11.74	7.74	5.48
x1 = 1	1016.3	1008.02	999.98	991.97	23.4	14.71	9.77	6.83

CN(CCO)CCO [N-methyldiethanolamine] + NCCO
Conditions	mass density, 293.15 K [kg/m3]	mass density, 303.15 K [kg/m3]	mass density, 313.15 K [kg/m3]	mass density, 323.15 K [kg/m3]	viscosity, 293.15 K [mPa·s]	viscosity, 303.15 K [mPa·s]	viscosity, 313.15 K [mPa·s]	viscosity, 323.15 K [mPa·s]
x1 = 0.1001	1021.71	1013.23	1005.13	997.1	32.9	19.84	12.83	8.4
x1 = 0.2006	1025.79	1017.39	1009.3	1001.26	43.27	25.18	15.97	10.48
x1 = 0.3	1029.07	1020.72	1012.66	1004.69	52.78	30.53	18.92	12.49
x1 = 0.3998	1031.69	1023.42	1015.36	1007.45	62.64	35.8	21.86	14.3
x1 = 0.4994	1033.82	1025.62	1017.61	1009.72	71.4	40.6	24.53	15.83
x1 = 0.5997	1035.58	1027.46	1019.48	1011.68	79.47	45.11	26.97	17.35
x1 = 0.6977	1037.09	1029.04	1021.11	1013.34	86.28	48.61	29.05	18.6
x1 = 0.7996	1038.43	1030.43	1022.52	1014.79	92.9	52.06	30.87	19.64
x1 = 0.8995	1039.57	1031.61	1023.72	1016.04	98.21	54.8	32.88	20.56
x1 = 1	1040.5	1032.6	1024.76	1017.12	103.04	57.28	33.94	21.31
